In article PMC4227742 (Journal of the American Chemical Society, 2014):

What was measured:
pCAF [1] = molecular target: T1, pCAF (Homo sapiens, UniProt Q92831); experiment: Photoaffinity/click fluorescent labeling of recombinant KAT, SDS-PAGE; assay type: binding; conditions: for Fluorescent detection of pCAF at high probe concentration: 1 μM probe; for Labeling of pCAF in KAT cocktail: probe 1 μM, mixture of p300, pCAF, Mof
Gcn5 [2] = molecular target: T2, Gcn5 (Homo sapiens, UniProt Q92830); experiment: Competitive substrate profiling: Gcn5 labeling by probe 2 vs acyl-CoAs; assay type: binding; conditions: 2 (10 μM), acyl-CoAs (1000 μM)
Gcn5 [3] = molecular target: T2, Gcn5; experiment: LC–MS/MS verification of Gcn5 acyltransferase activity; assay type: biochemical; conditions: LC–MS/MS analysis, Supplementary Figure S10
pCAF [4] = conditions: read-out: literature IC50; cited from earlier work
pCAF [5] = molecular target: T1, pCAF; experiment: Labeling of pCAF in HEK-293 overexpression extracts; assay type: binding
p300 = molecular target: T3, p300 (Homo sapiens, UniProt Q09472); experiment: Photoaffinity/click fluorescent labeling of recombinant KAT, SDS-PAGE; assay type: binding; conditions: probe 1 μM; mixture of p300, pCAF, Mof
T3 sequence (Q09472 1284-1673): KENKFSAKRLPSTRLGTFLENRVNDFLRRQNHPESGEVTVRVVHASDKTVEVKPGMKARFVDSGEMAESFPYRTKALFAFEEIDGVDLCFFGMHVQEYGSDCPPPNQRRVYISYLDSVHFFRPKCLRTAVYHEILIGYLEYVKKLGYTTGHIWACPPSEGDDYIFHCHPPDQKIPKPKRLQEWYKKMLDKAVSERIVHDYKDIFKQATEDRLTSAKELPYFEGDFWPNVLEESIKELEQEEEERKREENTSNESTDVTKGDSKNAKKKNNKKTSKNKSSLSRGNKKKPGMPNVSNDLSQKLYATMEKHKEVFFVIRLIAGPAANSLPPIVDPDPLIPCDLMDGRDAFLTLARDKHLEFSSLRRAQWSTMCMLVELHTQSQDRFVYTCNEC

Mof (MYST1) = molecular target: T4, Mof (MYST1) (Homo sapiens, UniProt Q9H7Z6); experiment: as above; assay type: binding; conditions: for Labeling of Mof in KAT cocktail: probe 1 μM, mixture of p300, pCAF
T4 sequence (Q9H7Z6 147-449): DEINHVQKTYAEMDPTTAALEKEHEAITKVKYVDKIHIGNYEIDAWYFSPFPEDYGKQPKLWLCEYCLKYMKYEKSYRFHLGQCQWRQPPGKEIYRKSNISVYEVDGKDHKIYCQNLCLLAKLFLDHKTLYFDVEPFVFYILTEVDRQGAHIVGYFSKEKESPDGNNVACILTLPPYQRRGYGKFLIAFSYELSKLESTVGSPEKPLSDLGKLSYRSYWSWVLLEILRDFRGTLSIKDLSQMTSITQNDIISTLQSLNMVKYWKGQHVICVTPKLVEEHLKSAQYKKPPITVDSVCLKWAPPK

pCAF [6] = molecular target: T1, pCAF; experiment: Detection of recombinant pCAF spiked into HeLa cell proteome; assay type: binding
human pCAF = conditions: cited from earlier work
Mof = molecular target: T5, Mof (Homo sapiens, UniProt Q9H7Z6); experiment: Competition of Mof labeling by probe 3; assay type: binding; conditions: excess competitor (100 μM), probe 3 1 μM
T5 sequence (Q9H7Z6 147-449): T4 sequence (Q9H7Z6 147-449)

pCAF [7] = molecular target: T1, pCAF; conditions: excess competitor (100 μM), probe 2 1 μM
[8] = probe 1–10 μM, 365 nm, click with fluorescent azide

TAMRA-H3K14-CoA [compound 7]
Fluorescent detection of pCAF at high probe concentration (pCAF [1]): facilitate fluorescent detection

CC=CC(=O)SCCNC(=O)CCNC(=O)[C@H](O)C(C)(C)COP(=O)(O)OP(=O)(O)OC[C@H]1O[C@@H](n2cnc3c(N)ncnc32)[C@H](O)[C@@H]1OP(=O)(O)O [crotonyl-CoA]
Competition with 2 for active site occupancy of Gcn5 (Gcn5 [2]): did not impede labeling

CC(=O)SCCNC(=O)CCNC(=O)[C@H](O)C(C)(C)COP(=O)(O)OP(=O)(O)OC[C@H]1O[C@@H](n2cnc3c(N)ncnc32)[C@H](O)[C@@H]1OP(=O)(O)O [acetyl-CoA]
Competition with 2 for active site occupancy of Gcn5 (Gcn5 [2]): efficiently competed labeling

CCC(=O)SCCNC(=O)CCNC(=O)[C@H](O)C(C)(C)COP(=O)(O)OP(=O)(O)OC[C@H]1O[C@@H](n2cnc3c(N)ncnc32)[C@H](O)[C@@H]1OP(=O)(O)O [propionyl-CoA]
Competition with 2 for active site occupancy of Gcn5 (Gcn5 [2]): antagonized labeling | Use as substrate by Gcn5 (Gcn5 [3]): utilized

H3K14-CoA [compound 5, reference compound]
Competition of pCAF labeling by 2 in HEK-293 overexpression extracts (pCAF [5]; competitor): sensitive to competition

H4K16-CoA-BPyne [compound 3]
Labeling of p300 in KAT cocktail (p300): fainter labeling | Labeling of pCAF in KAT cocktail (pCAF [1]): fainter labeling | Labeling of Mof in KAT cocktail (Mof (MYST1)): most strongly labeled | Fluorescent labeling of purified recombinant Mof (Mof (MYST1); [8]): reacted effectively

H3K14-CoA-BPyne [compound 2]
Relative labeling of pCAF at low probe concentration (pCAF [1]; 0.1 μM probe, clickable 2 compared with fluorescent probe 7): visibly greater labeling | Fluorescent detection of pCAF at high probe concentration (pCAF [1]): facilitate fluorescent detection | Fraction of pCAF covalently labeled (cross-linking yield) (pCAF [1]; 60 min irradiation at 365 nm on ice, gel densitometry): 33–40% | Labeling of pCAF in KAT cocktail (pCAF [1]): clear preference for specific labeling | Fluorescent labeling of purified recombinant pCAF (pCAF [1]; [8]): reacted effectively | Labeling of Mof in KAT cocktail (Mof (MYST1)): weaker, but detectable, labeling | Labeling of pCAF in HEK-293 overexpression extracts (pCAF [5]; fluorescence gel): Weak but detectable labeling | Lower limit of pCAF detection (pCAF [6]; 2 (1 μM), HeLa proteome (7 μg), gel-based): 2.5 pmols | Detection of pCAF spiked into HeLa cell proteomes (pCAF [6]; pCAF 7 pmols): capable of detecting

CCCC(=O)SCCNC(=O)CCNC(=O)[C@H](O)C(C)(C)COP(=O)(O)OP(=O)(O)OC[C@H]1O[C@@H](n2cnc3c(N)ncnc32)[C@H](O)[C@@H]1OP(=O)(O)O [butyryl-CoA]
Competition with 2 for active site occupancy of Gcn5 (Gcn5 [2]): partial antagonist | Use as substrate by Gcn5 (Gcn5 [3]): utilized

CC(C)(COP(=O)(O)OP(=O)(O)OC[C@H]1O[C@@H](n2cnc3c(N)ncnc32)[C@H](O)[C@@H]1OP(=O)(O)O)[C@@H](O)C(=O)NCCC(=O)NCCSC(=O)CC(=O)O [malonyl-CoA]
Use as substrate by pCAF (human pCAF): not utilized as a substrate

CC(=O)N[C@@H](CCCCNC(=O)CSCCNC(=O)CCNC(=O)[C@H](O)C(C)(C)COP(=O)(O)OP(=O)(O)OC[C@H]1O[C@@H](n2cnc3c(N)ncnc32)[C@H](O)[C@@H]1OP(=O)(O)O)C(N)=O [compound 4, Lys-CoA]
Competition of Mof-3 interaction (Mof): competed | Competition of interaction of pCAF with 2 (pCAF [7]): no similar effect
